The nature of test [1]: Inhibition of classical complement pathway activation at 6.6 uM assessed as complement modulation test.
The nature of test [2]: Inhibition of classical complement pathway activation at 4 uM assessed as complement modulation test.
The nature of test [3]: Inhibition of alternative complement pathway activation by complement modulation test.
A short description of test [4]: Inhibition of classical complement pathway activation at 4 uM in presence of beta glucosidase by complement modulation test.
The nature of test [5]: Inhibition of classical complement pathway activation by complement modulation test.

pIC50: −log10 of the molar value. The source made the active and inactive calls. The calls are words filed in the database; no cut-off is given here.

The values that follow come from ChEMBL document CHEMBL1158890, “Complement-inhibiting iridoids from Morinda morindoides” (J Nat Prod, 2003).

For the compound `COC(=O)C1=CO[C@@H](O)[C@@H]2C(CO)=CC[C@H]12`, the inhibition in test [1] is 75.3%.
For `COC(=O)C1=CO[C@@H](O[C@@H]2O[C@H](CO)[C@@H](O)[C@H](O)[C@H]2O)[C@@H]2C(CO)=CC[C@H]12`, the inhibition in test [2] is 23%.
Take `COC(=O)C1=CO[C@H](O[C@@H]2O[C@H](CO)[C@@H](O)[C@H](O)[C@H]2O)[C@H]2[C@@H]1[C@@H]1O[C@@H]1[C@@]21C=C(C(O)c2ccc(O)c(OC)c2)C(=O)O1` (stereo partly specified): in test [3], the result was inactive.
Take `O=C(O)C1=CO[C@@H](O[C@@H]2O[C@H](CO)[C@@H](O)[C@H](O)[C@H]2O)[C@@H]2C(CO)=CC[C@H]12`: the inhibition in test [2] is 14.3%; in test [4], 87.3%.
The like results for `OCC1=C[C@@H](O)[C@@H]2C=CO[C@@H](O[C@@H]3O[C@H](CO)[C@@H](O)[C@H](O)[C@H]3O)[C@H]12` were, in that order, 21.7% and 89.3%.
Compound `COC(=O)C1=CO[C@H](O[C@@H]2O[C@H](COC(C)=O)[C@@H](O)[C@H](O)[C@H]2O)[C@H]2[C@@H]1C=C[C@@]21C=C(C(O)c2ccc(O)cc2)C(=O)O1` (stereo partly specified) [ACETYLGAERTNEROSIDE] gave a pIC50 in test [5] of 4.15. Moreover, the result in test [3] was inactive.
In turn, `COC(=O)C1=CO[C@H](O[C@@H]2O[C@H](CO)[C@@H](O)[C@H](O)[C@H]2O)[C@H]2[C@@H]1C=C[C@@]21C=C(C(=O)c2ccc(O)cc2)C(=O)O1` [DEHYDROGAERTNEROSIDE] showed a pIC50 in test [5] of less than 3.40. Moreover, in test [3], the outcome was inactive.
In the case of `COC(=O)C1=CO[C@@H](O[C@@H]2O[C@H](CO)[C@@H](O)[C@H](O)[C@H]2O)[C@H]2[C@@H]1C=C[C@@]21C=C(C(=O)c2ccc(O)c(OC)c2)C(=O)O1` [DEHYDROMETHOXYGAERTNEROSIDE], the pIC50 in test [5] is less than 3.40. For the same compound, the outcome in test [3] was inactive.
For the compound `COC(=O)C1=CO[C@H](O[C@@H]2O[C@H](CO)[C@@H](O)[C@H](O)[C@H]2O)[C@H]2[C@@H]1[C@@H]1O[C@@H]1[C@@]21C=C(C(O)c2ccc(O)cc2)C(=O)O1` (stereo partly specified) [EPOXYGAERTNEROSIDE], the pIC50 in test [5] is less than 3.00. Further, the result in test [3] was inactive.
With `O=C(O)C1=CO[C@H](O[C@@H]2O[C@H](CO)[C@@H](O)[C@H](O)[C@H]2O)[C@H]2[C@@H]1C=C[C@@]21C=C(C(O)c2ccc(O)cc2)C(=O)O1` (stereo partly specified) [GAERTNERIC ACID], the pIC50 in test [5] was 4.16. The outcome in test [3] was inactive.
Consider `COC(=O)C1=CO[C@H](O[C@@H]2O[C@H](CO)[C@@H](O)[C@H](O)[C@H]2O)[C@H]2[C@@H]1C=C[C@@]21C=C(C(O)c2ccc(O)cc2)C(=O)O1` (stereo partly specified) [GAERTNEROSIDE], for which the pIC50 in test [5] is 4.24. For the same compound, in test [3], the outcome was inactive.
Compound `COC(=O)C1=CO[C@H](O[C@@H]2O[C@H](CO)[C@@H](O)[C@H](O)[C@H]2O)[C@H]2[C@@H]1C=C[C@@]21C=C(C(O)c2ccc(O)c(OC)c2)C(=O)O1` (stereo partly specified) [METHOXYGAERTNEROSIDE] had a pIC50 in test [5] of less than 3.00. For the same compound, in test [3], the result was inactive.
